Assay results as given in ChEMBL document CHEMBL1147207 (Eur J Med Chem, 2007).
Calls of active or inactive are those of the source. The rule behind the calls is not given here. Bridge positions count the residues as written; N and C are the ends. Square brackets hold non-standard residues; d marks the D form. Peptide text beside a SMILES is read from it. Orn = NCCC[C@H](N)C(=O)O; Aib = CC(C)(N)C(=O)O; Mpa = O=C(O)CCS

Columns and labels:
[1] = biological target: T1, Oxytocin receptor (Rattus norvegicus) (UniProt P70536); assay: Agonist activity in rat uterus by uterotonic assay; assay type: functional, tissue-based
T1 sequence (whole entry): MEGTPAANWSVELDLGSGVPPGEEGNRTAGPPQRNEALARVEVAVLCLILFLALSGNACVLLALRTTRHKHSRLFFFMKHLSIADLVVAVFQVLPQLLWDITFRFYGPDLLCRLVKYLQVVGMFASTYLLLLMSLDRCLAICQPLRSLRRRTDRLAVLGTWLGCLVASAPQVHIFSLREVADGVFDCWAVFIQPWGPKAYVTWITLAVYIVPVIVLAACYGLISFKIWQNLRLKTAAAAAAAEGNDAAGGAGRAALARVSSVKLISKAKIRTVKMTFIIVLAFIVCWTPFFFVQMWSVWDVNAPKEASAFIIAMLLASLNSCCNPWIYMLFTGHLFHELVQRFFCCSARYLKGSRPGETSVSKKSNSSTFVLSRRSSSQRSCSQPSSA

[2] = biological target: Vasopressin V1a receptor (Rattus norvegicus) (UniProt P30560); assay: Agonist activity in phenoxybenzamine-treated rat up to 0.16 mg/kg by Pressor assay
Oxytocin receptor [3] = biological target: T2, Oxytocin receptor (Rattus norvegicus, UniProt P70536); assay: Antagonist activity in rat uterus by uterotonic assay; assay type: functional, tissue-based; conditions: read-out: pA2 (converted)
T2 sequence (P70536 whole entry): T1 sequence (whole entry)

Oxytocin receptor [4] = biological target: T3, Oxytocin receptor (Homo sapiens, UniProt P30559); assay: Displacement of [3H]OT from human OT receptor expressed in HEK cells; assay type: cell-based, HEK293
T3 sequence (P30559 whole entry): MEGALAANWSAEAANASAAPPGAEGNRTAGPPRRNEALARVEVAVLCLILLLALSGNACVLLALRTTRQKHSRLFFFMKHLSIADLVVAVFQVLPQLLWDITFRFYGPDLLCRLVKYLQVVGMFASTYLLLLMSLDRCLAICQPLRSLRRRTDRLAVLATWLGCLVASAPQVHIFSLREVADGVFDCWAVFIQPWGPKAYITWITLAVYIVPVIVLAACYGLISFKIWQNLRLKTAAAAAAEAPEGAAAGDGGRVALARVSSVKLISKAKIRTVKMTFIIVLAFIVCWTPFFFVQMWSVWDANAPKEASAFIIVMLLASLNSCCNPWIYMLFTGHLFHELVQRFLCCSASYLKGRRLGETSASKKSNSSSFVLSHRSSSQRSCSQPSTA

Chain of Vasopressin V1a receptor (Rattus norvegicus) (P30560 whole entry, looked up): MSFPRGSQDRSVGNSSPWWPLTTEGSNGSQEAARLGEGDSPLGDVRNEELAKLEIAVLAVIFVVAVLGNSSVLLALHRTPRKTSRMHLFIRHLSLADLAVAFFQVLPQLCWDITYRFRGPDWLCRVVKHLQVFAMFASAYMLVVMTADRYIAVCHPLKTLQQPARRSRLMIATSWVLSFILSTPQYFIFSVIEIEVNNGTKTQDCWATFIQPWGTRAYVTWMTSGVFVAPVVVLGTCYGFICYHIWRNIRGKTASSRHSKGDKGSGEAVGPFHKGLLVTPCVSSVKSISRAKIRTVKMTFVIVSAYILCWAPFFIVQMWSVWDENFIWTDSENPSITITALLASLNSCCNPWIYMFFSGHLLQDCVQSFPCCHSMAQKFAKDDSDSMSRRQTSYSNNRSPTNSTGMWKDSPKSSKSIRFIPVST

Activity [1] [IU/mg] | Activity [2] | Kb (Oxytocin receptor [3]) [nM] | IC50 (Oxytocin receptor [4]) [nM] | Compound
0 | inactive | – | – | CC(C)C[C@H](NC(=O)[C@H](NC(=O)[C@@H]1CSSC[C@H](N)C(=O)N[C@@H](Cc2ccc(O)cc2)C(=O)N[C@@H](C(C)(C)C)C(=O)N[C@@H](CCC(N)=O)C(=O)N[C@@H](CC(N)=O)C(=O)N1)C(C)(C)C)C(=O)NCC(N)=O
0 | – | 5.13 | – | CCOc1ccc(C[C@H]2NC(=O)CCSSC[C@@H](C(=O)N3CCC[C@H]3C(=O)N[C@@H](CCCN)C(=O)NCC(N)=O)NC(=O)[C@H](CC(N)=O)NC(=O)[C@H]([C@@H](C)O)NC(=O)[C@H]([C@@H](C)CC)NC2=O)cc1 [ATOSIBAN] ([Mpa][dY](Et)ITNCP[Orn]G-NH2; disulfide 1-6)
0 | – | 43.7 | – | CCOc1ccc(C[C@H]2NC(=O)[C@@H](N)CSSC[C@@H](C(=O)N3CCC[C@H]3C(=O)N[C@@H](CC(C)C)C(=O)NCC(N)=O)NC(=O)[C@H](CC(N)=O)NC(=O)[C@H](CCC(N)=O)NC(=O)[C@H]([C@@H](C)CC)NC2=O)cc1
546 | – | – | – | CC[C@H](C)[C@@H]1NC(=O)[C@H](Cc2ccc(O)cc2)NC(=O)[C@@H](N)CSSC[C@@H](C(=O)N2CCC[C@H]2C(=O)N[C@@H](CC(C)C)C(=O)NCC(N)=O)NC(=O)[C@H](CC(N)=O)NC(=O)[C@H](CCC(N)=O)NC1=O
1.8 | inactive | – | – | CC[C@H](C)[C@@H]1NC(=O)[C@H](Cc2ccc(O)cc2)NC(=O)[C@@H](N)CSSC[C@@H](C(=O)N[C@@H](C(=O)N[C@@H](CC(C)C)C(=O)NCC(N)=O)C(C)(C)C)NC(=O)[C@H](CC(N)=O)NC(=O)[C@H](CCC(N)=O)NC1=O
– | – | – | 1380 | CC[C@H](C)[C@@H]1NC(=O)[C@H](Cc2ccc(O)cc2)NC(=O)[C@@H](N)CSSC[C@@H](C(=O)N[C@H](C(=O)N[C@@H](CC(C)C)C(=O)NCC(N)=O)C(C)(C)C)NC(=O)[C@H](CC(N)=O)NC(=O)[C@H](CCC(N)=O)NC1=O
– | – | 741 | 51700 | CC(C)C[C@H](NC(=O)[C@@H](NC(=O)[C@@H]1CSSC[C@H](N)C(=O)N[C@@H](Cc2ccc(O)cc2)C(=O)N[C@@H](C(C)(C)C)C(=O)N[C@@H](CCC(N)=O)C(=O)N[C@@H](CC(N)=O)C(=O)N1)C(C)(C)C)C(=O)NCC(N)=O
0 | inactive | 39.8 | – | CCc1ccc(C[C@@H]2NC(=O)CCSSC[C@@H](C(=O)NC(C)(C)C(=O)N[C@@H](CC(C)C)C(=O)NCC(N)=O)NC(=O)[C@H](CC(N)=O)NC(=O)[C@H](CCC(N)=O)NC(=O)[C@H]([C@@H](C)CC)NC2=O)cc1
79.8 | inactive | – | 7 | CC[C@H](C)[C@@H]1NC(=O)[C@H](Cc2ccc(O)cc2)NC(=O)[C@@H](N)CSSC[C@@H](C(=O)N2CCCC[C@H]2C(=O)N[C@@H](CC(C)C)C(=O)NCC(N)=O)NC(=O)[C@H](CC(N)=O)NC(=O)[C@H](CCC(N)=O)NC1=O
– | – | 13.5 | 55 | CCOc1ccc(C[C@H]2NC(=O)CCSSC[C@@H](C(=O)NC(C)(C)C(=O)N[C@@H](CC(C)C)C(=O)N3Cc4ccccc4C[C@@H]3C(N)=O)NC(=O)[C@H](CC(N)=O)NC(=O)[C@H](CCC(N)=O)NC(=O)[C@H]([C@@H](C)CC)NC2=O)cc1
1.7 | inactive | – | 75 | CC[C@H](C)[C@@H]1NC(=O)[C@H](Cc2ccc(O)cc2)NC(=O)[C@@H](N)CSSC[C@@H](C(=O)NC(C)(C)C(=O)N[C@@H](CC(C)C)C(=O)NCC(N)=O)NC(=O)[C@H](CC(N)=O)NC(=O)[C@H](CCC(N)=O)NC1=O (H-CYIQNC[Aib]LG-NH2; disulfide 1-6)
0 | inactive | – | – | CCOc1ccc(CC2NC(=O)CCSSC[C@@H](C(=O)NC(C)(C)C(=O)N[C@@H](CC(C)C)C(=O)N3CCCC[C@@H]3C(N)=O)NC(=O)[C@H](CC(N)=O)NC(=O)[C@H](CCC(N)=O)NC(=O)[C@H]([C@@H](C)CC)NC2=O)cc1 (stereo in doubt)
803 | – | – | – | CC[C@H](C)[C@@H]1NC(=O)[C@H](Cc2ccc(O)cc2)NC(=O)CCSSC[C@H](C(=O)N2CCC[C@H]2C(=O)N[C@@H](CC(C)C)C(=O)NCC(N)=O)NC(=O)[C@H](CC(N)=O)NC(=O)[C@H](CCC(N)=O)NC1=O
